Experimental data published in the kinase profiling compilation of Christmann-Franck et al. (2016).

What was measured:
Experiment in all cases: radiometric filter-binding kinase assay
[1] = tested on: PAK2 (human), Q13177 [T402E]
MST4 (human) = MST4 (human) (UniProt Q9P289)
RPS6KA3 KD1 KD2 (human) = RPS6KA3 KD1 KD2 (human) (UniProt P51812)
FGFR1 (human) = FGFR1 (human) (UniProt P11362)
PAK7 (human) = PAK7 (human) (UniProt Q9P286)
HIPK1 (human) = HIPK1 (human) (UniProt Q86Z02)
LRRK2 (human) = LRRK2 (human) (UniProt Q5S007)
INSRR (human) = INSRR (human) (UniProt P14616)
[2] = tested on: RPS6KB1 (human), P23443 [T412E]
DYRK2 (human) = DYRK2 (human) (UniProt Q92630)
PRKCZ (human) = PRKCZ (human) (UniProt Q05513)
MAP3K1 (human) = MAP3K1 (human) (UniProt Q13233)
BRSK2 (human) = BRSK2 (human) (UniProt Q8IWQ3)
CaMK1 (human) = CaMK1 (human) (UniProt Q14012)
CDK2 CCNA2 (human) = CDK2 CCNA2 (human) (UniProt P20248+P24941)
MARK4 (human) = MARK4 (human) (UniProt Q96L34)
MARK3 (human) = MARK3 (human) (UniProt P27448)
MAPKAPK2 (human) = MAPKAPK2 (human) (UniProt P49137)
DAPK1 (human) = DAPK1 (human) (UniProt P53355)
PKN2 (human) = PKN2 (human) (UniProt Q16513)
BRSK1 (human) = BRSK1 (human) (UniProt Q8TDC3)
JAK2 JH1 JH2 (human) = JAK2 JH1 JH2 (human) (UniProt O60674)
YES1 (human) = YES1 (human) (UniProt P07947)
HIPK2 (human) = HIPK2 (human) (UniProt Q9H2X6)
MAPK10 (human) = MAPK10 (human) (UniProt P53779)
NEK2 (human) = NEK2 (human) (UniProt P51955)
MAPK3 (human) = MAPK3 (human) (UniProt P27361)
MAP3K9 (human) = MAP3K9 (human) (UniProt P80192)
CSNK2A1 (human) = CSNK2A1 (human) (UniProt P68400)
LCK (mouse) = conditions: accession and sequence are those of the human protein
TBK1 (human) = TBK1 (human) (UniProt Q9UHD2)
SRC (human) = SRC (human) (UniProt P12931)
MAPK14 (human) = MAPK14 (human) (UniProt Q16539)
MELK (human) = MELK (human) (UniProt Q14680)

Sequence of CaMK1 (human) (Q14012 whole entry, looked up): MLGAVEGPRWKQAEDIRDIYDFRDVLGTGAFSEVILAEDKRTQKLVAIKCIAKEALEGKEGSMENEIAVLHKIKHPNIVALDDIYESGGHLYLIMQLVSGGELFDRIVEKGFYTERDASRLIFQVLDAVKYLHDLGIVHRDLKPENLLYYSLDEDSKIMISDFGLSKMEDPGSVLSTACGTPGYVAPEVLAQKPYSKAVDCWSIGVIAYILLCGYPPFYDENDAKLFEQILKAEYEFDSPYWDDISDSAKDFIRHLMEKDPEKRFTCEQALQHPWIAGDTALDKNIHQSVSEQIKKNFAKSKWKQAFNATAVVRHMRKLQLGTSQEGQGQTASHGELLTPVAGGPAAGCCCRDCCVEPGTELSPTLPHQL
Sequence of FGFR1 (human) (P11362 whole entry, looked up): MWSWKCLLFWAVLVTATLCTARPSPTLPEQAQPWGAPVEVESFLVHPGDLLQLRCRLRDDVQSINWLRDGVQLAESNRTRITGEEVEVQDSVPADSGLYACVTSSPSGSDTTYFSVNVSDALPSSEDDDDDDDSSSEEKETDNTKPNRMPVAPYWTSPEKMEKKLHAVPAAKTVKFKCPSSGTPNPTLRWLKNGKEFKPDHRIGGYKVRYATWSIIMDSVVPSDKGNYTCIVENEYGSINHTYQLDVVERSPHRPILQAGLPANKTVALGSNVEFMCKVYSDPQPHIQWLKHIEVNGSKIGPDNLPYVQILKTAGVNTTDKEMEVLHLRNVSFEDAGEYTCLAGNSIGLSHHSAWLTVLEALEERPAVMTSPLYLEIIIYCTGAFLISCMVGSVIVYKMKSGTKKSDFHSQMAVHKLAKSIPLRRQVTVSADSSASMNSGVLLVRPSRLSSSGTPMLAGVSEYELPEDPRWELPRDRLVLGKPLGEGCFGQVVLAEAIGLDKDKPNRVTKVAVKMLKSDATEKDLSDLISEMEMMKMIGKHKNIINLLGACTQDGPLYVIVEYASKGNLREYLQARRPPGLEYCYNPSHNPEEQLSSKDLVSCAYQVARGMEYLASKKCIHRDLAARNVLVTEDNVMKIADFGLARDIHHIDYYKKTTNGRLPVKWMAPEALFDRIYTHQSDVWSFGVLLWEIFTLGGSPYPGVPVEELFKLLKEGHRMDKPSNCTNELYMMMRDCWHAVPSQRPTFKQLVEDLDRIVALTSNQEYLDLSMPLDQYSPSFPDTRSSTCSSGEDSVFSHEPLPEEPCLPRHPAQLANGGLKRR
Sequence of DAPK1 (human) (P53355 whole entry, looked up): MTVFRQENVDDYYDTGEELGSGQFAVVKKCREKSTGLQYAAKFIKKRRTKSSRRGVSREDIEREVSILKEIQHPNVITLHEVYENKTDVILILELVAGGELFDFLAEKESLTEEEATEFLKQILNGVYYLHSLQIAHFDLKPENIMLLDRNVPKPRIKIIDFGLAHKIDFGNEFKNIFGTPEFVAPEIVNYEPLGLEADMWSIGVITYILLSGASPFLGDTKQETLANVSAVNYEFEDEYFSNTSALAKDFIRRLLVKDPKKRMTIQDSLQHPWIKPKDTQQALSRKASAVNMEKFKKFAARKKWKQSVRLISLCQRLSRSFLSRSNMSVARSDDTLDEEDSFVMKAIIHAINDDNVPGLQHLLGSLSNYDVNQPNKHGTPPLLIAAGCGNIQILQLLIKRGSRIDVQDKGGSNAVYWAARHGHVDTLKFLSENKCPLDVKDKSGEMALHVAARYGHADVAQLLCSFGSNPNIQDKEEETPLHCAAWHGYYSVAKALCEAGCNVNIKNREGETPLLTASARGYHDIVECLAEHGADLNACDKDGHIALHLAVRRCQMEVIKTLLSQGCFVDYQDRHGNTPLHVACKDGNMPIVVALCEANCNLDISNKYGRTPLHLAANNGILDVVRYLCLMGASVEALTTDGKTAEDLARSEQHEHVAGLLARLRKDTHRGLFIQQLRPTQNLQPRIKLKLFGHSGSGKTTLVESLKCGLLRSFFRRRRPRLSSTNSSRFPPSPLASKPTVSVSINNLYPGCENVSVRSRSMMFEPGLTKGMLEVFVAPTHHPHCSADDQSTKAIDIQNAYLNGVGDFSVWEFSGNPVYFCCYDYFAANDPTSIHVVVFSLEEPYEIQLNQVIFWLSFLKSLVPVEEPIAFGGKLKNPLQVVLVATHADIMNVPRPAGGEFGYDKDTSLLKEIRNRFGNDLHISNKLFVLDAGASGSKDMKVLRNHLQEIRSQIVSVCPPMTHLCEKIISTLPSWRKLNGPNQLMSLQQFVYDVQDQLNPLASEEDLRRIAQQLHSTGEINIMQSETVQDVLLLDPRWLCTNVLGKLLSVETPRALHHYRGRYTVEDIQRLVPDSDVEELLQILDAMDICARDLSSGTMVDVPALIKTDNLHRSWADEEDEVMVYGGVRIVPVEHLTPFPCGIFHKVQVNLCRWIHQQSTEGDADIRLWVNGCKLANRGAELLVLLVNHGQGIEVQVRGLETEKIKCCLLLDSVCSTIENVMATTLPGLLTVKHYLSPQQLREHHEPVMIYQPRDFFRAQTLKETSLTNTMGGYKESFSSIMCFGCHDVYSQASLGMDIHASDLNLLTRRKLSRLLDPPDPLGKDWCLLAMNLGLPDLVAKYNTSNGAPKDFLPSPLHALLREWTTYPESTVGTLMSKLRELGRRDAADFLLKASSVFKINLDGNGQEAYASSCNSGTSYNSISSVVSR
Sequence of RPS6KB1 (human), P23443 [T412E] (P23443 whole entry T412E, looked up): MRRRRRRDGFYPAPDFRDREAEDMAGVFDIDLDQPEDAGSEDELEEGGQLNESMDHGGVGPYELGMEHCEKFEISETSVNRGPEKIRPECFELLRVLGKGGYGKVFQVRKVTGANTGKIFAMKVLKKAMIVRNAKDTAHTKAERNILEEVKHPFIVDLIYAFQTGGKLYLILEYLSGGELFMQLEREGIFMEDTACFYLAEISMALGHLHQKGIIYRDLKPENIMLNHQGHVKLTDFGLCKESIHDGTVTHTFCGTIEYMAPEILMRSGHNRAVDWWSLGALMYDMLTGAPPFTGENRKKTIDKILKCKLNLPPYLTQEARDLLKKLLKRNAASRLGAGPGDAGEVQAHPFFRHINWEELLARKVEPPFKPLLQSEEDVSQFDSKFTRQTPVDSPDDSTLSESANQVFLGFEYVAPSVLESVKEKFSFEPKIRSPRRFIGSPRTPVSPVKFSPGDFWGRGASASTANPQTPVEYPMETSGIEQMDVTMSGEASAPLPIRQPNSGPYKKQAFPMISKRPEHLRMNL
Sequence of YES1 (human) (P07947 whole entry, looked up): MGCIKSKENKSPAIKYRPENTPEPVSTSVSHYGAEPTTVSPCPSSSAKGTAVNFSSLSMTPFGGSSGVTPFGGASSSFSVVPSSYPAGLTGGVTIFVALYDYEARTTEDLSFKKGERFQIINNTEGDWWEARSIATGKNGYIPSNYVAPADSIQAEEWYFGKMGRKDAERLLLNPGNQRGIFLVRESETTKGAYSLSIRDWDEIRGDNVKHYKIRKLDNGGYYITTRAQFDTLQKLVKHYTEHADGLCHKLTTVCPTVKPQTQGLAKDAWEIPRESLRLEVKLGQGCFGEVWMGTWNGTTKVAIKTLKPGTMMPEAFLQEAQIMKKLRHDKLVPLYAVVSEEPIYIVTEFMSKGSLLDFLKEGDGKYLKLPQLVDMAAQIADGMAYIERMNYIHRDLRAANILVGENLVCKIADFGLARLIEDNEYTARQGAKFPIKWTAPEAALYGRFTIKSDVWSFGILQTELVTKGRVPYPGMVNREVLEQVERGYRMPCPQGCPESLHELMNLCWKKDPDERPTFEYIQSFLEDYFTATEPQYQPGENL
Sequence of MARK4 (human) (Q96L34 whole entry, looked up): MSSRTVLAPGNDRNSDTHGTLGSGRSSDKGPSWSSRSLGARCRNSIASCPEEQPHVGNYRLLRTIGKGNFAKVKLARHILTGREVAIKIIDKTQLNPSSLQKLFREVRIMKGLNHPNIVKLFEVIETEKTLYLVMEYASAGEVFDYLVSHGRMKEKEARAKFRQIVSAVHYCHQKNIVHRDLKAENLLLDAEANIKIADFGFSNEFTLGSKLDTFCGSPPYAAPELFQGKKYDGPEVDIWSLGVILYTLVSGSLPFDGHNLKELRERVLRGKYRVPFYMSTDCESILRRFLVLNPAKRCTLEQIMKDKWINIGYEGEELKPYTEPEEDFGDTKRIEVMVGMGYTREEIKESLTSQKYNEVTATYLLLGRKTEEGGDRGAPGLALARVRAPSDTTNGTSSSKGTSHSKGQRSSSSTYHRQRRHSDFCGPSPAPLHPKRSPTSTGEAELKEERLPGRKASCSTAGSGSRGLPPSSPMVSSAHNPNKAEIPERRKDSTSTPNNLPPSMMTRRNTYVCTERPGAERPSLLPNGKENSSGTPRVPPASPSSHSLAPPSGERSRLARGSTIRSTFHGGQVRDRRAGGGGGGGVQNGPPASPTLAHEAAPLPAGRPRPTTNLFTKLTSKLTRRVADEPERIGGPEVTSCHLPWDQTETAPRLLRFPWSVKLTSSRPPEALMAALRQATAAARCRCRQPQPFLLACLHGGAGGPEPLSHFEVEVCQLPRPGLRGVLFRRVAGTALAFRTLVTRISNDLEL
Sequence of MST4 (human) (Q9P289 whole entry, looked up): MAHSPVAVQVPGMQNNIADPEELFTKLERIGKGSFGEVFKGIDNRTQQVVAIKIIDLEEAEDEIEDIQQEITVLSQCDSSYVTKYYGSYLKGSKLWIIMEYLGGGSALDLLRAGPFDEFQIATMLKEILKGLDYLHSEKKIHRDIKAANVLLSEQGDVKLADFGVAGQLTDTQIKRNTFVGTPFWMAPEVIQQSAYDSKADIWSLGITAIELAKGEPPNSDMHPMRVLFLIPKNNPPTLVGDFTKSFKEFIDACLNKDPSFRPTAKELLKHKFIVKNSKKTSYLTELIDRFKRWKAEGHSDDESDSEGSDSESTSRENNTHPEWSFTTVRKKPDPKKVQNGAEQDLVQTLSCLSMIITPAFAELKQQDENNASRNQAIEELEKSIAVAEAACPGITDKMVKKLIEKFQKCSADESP

SMILES: COc1cc(C(=O)N2CCC(N3CCN(C)CC3)CC2)ccc1Nc1ncc2c(n1)N(C)c1ccccc1C(=O)N2C
- residual activity ([1]; compound 1.0 µM): 97%
- residual activity ([1]; compound 10.0 µM): 110%
- residual activity (MST4 (human); compound 1.0 µM): 90%
- residual activity (MST4 (human); compound 10.0 µM): 87%
- residual activity (RPS6KA3 KD1 KD2 (human); compound 1.0 µM): 84%
- residual activity (RPS6KA3 KD1 KD2 (human); compound 10.0 µM): 59%
- residual activity (FGFR1 (human); compound 1.0 µM): 83%
- residual activity (FGFR1 (human); compound 10.0 µM): 60%
- residual activity (PAK7 (human); compound 1.0 µM): 84%
- residual activity (PAK7 (human); compound 10.0 µM): 89%
- residual activity (HIPK1 (human); compound 1.0 µM): 94%
- residual activity (HIPK1 (human); compound 10.0 µM): 104%
- IC50 (LRRK2 (human)): 13 nM
- residual activity (INSRR (human); compound 1.0 µM): 80%
- residual activity (INSRR (human); compound 10.0 µM): 91%
- residual activity ([2]; compound 1.0 µM): 86%
- residual activity ([2]; compound 10.0 µM): 81%
- residual activity (DYRK2 (human); compound 1.0 µM): 90%
- residual activity (DYRK2 (human); compound 10.0 µM): 98%
- residual activity (PRKCZ (human); compound 1.0 µM): 94%
- residual activity (PRKCZ (human); compound 10.0 µM): 104%
- residual activity (MAP3K1 (human); compound 1.0 µM): 87%
- residual activity (MAP3K1 (human); compound 10.0 µM): 83%
- residual activity (BRSK2 (human); compound 1.0 µM): 89%
- residual activity (BRSK2 (human); compound 10.0 µM): 87%
- residual activity (CaMK1 (human); compound 1.0 µM): 75%
- residual activity (CaMK1 (human); compound 10.0 µM): 43%
- residual activity (CDK2 CCNA2 (human); compound 1.0 µM): 84%
- residual activity (CDK2 CCNA2 (human); compound 10.0 µM): 79%
- residual activity (MARK4 (human); compound 1.0 µM): 94%
- residual activity (MARK4 (human); compound 10.0 µM): 87%
- residual activity (MARK3 (human); compound 1.0 µM): 100%
- residual activity (MARK3 (human); compound 10.0 µM): 105%
- residual activity (MAPKAPK2 (human); compound 1.0 µM): 86%
- residual activity (MAPKAPK2 (human); compound 10.0 µM): 84%
- residual activity (DAPK1 (human); compound 1.0 µM): 85%
- residual activity (DAPK1 (human); compound 10.0 µM): 77%
- residual activity (PKN2 (human); compound 1.0 µM): 74%
- residual activity (PKN2 (human); compound 10.0 µM): 80%
- residual activity (BRSK1 (human); compound 1.0 µM): 83%
- residual activity (BRSK1 (human); compound 10.0 µM): 78%
- residual activity (JAK2 JH1 JH2 (human); compound 1.0 µM): 74%
- residual activity (JAK2 JH1 JH2 (human); compound 10.0 µM): 80%
- residual activity (YES1 (human); compound 1.0 µM): 86%
- residual activity (YES1 (human); compound 10.0 µM): 82%
- residual activity (HIPK2 (human); compound 1.0 µM): 76%
- residual activity (HIPK2 (human); compound 10.0 µM): 86%
- residual activity (MAPK10 (human); compound 1.0 µM): 92%
- residual activity (MAPK10 (human); compound 10.0 µM): 109%
- residual activity (NEK2 (human); compound 1.0 µM): 92%
- residual activity (NEK2 (human); compound 10.0 µM): 110%
- residual activity (MAPK3 (human); compound 1.0 µM): 105%
- residual activity (MAPK3 (human); compound 10.0 µM): 104%
- residual activity (MAP3K9 (human); compound 1.0 µM): 87%
- residual activity (MAP3K9 (human); compound 10.0 µM): 96%
- residual activity (CSNK2A1 (human); compound 1.0 µM): 71%
- residual activity (CSNK2A1 (human); compound 10.0 µM): 80%
- residual activity (LCK (mouse); compound 1.0 µM): 106%
- residual activity (LCK (mouse); compound 10.0 µM): 99%
- residual activity (TBK1 (human); compound 1.0 µM): 94%
- residual activity (TBK1 (human); compound 10.0 µM): 104%
- residual activity (SRC (human); compound 1.0 µM): 99%
- residual activity (SRC (human); compound 10.0 µM): 99%
- residual activity (MAPK14 (human); compound 1.0 µM): 95%
- residual activity (MAPK14 (human); compound 10.0 µM): 96%
- residual activity (MELK (human); compound 1.0 µM): 88%
- residual activity (MELK (human); compound 10.0 µM): 92%
